The values that follow come from patent US5686426A, “Dicarboxymethylated glycolipid derivatives as cell adhesion inhibitors” (Bristol-Myers Squibb Company, priority 1994, dated 1997).

Assay [1] has as its system reverse passive Arthus reaction in rats. Nature of the assay: Reverse Passive Arthus Reaction in Rats (RPA). It counts as in vivo, Male Sprague Dawley rats. Set-up: key: NS: no significant inhibition at 3 mg. Conditions: rat, single IV dose 3 mg, 4 hours; for RPA VP % Inhib. (vascular permeability): 125I-BSA plasma extravasation into skin; for RPA MPO % Inhib. (myeloperoxidase, neutrophil accumulation): skin MPO activity. The text has this: The reverse passive Arthus reaction in rats is a modification of the method by Mulligan et al., as described in J. Clin. Invest., (1991) 88: 1396-1406. This is an experimental model in which the interaction of antigen-antibody complexes and complement leads to a severe vasculitis that is associated with edema, induration, erythema and hemorrhage. The interaction between the antigen-antibody complexes and complement leads to a localized influx of neutrophils. These neutrophils release a variety of mediators that are associated with tissue damage and vascular permeability. The localized inflammatory reaction is measured using different techniques i.e., vascular permeability and neutrophil influx which is evaluated both biochemically and microscopically.
Male Sprague Dawley specific pathogen-free rats with jugular vein cannulae (280-320 g, Hill Top Labs, Pa.) are used in these studies. Animals are acclimated for at least 1 day and individually housed in stainless steel cages. The dorsal region of the rats is closely clipped 2 days prior to the experiments and divided into 4 sites on each side of the midline. Prior to all injections the rats are sedated with 0.4 ml per 300 gm rat of ketamine/rompun [1000 mg (10 ml) of ketamine HCL is mixed with 40 mg (2.0 ml) Rompun] administered IP and or inhalation anesthesia with metafane (methoxyflurane).
Bovin Serum Albumin (BSA) and rabbit polyclonal IgG rich in anti-BSA are purchased from Sigma Chemical Co. (St. Louis, Mo.). Radiolabelled ^125 I-BSA (spAct 1-5 μCi/μg) is purchased from Dupont NEN (Boston, Mass.).
Each rat is administered intradermal (ID) injection of (0.4 mg, 0.6 mg and 0.8 mg) anti-BSA in a volume of 100 μl per injection in normal saline. The ID injections are randomized near the mid dorsal region on both sides of the back bone. Immediately after the ID injections of the anti-BSA, the rats are administered intravenous (IV) injections of BSA (10 mg in 1.0 ml) in normal saline containing ^125 I labeled BSA (1 μCi/ml BSA or 5.0 μCi/kg body wt) for quantification of dermal vascular injury. Anti-inflammatory agents such as inhibitors of adhesion molecules of the present invention are administered IV at a single dose of 3 mg immediately after BSA. Four (4) hours after the IV injection of BSA, the rats are anesthetized with metafane and 2 to 3 ml of blood is withdrawn via the cannula into an anticoagulant containing (EDTA or Heparin) tube and plasma separated and saved for neutrophil and albumin quantitation. The rats are killed and the skin surrounding the injection site (15 mm diameter) is punched out and weighed. The skin samples and a fixed volume of plasma (0.1 to 1.0 ml) is analyzed in a gamma-counter for ^125 I content. Skin samples from the contralateral side are processed and analyzed for myeloperoxidase activity (MPO) as a measure of neutrophil accumulation. As needed, samples are also processed for histological evaluation of the reacted sites.
Vascular Permeability (VP)
The calculation of the plasma protein exudation into skin is made by determining the radioactivity in the tissue and relating this to the level of radioactive albumin in the blood at the time of sacrifice. […] [formula]
Percent inhibition of the test compound at 3 mg was determined as follows: [formula] Myeloperoxidase (MPO)
MPO is located in the azurophil granules of polymorphonuclear leukocytes (PMN). Because of its abundance in these cells (5% dry weight), this enzyme is used as a marker for tissue neutrophil content. For tissue MPO content, the method of Bradley, et al., was used as described in J. Invest. Dermatol. (1982) 78: 206-209. Biopsies from each treatment group were placed in plastic tubes (15×100 mm) containing 10 ml of 0.5% hexadecyltrimethylammonium bromide (HTAB)in 0.05M potassium phosphate buffer pH 6.0. The tissue was then homogenized with a Brinkmann Polytron homogenizer (10s). […]

For another assay, the system named is P-selectin. Nature of the assay: P-Selectin Adhesion Receptor Binding (cell-free ELISA, inhibition of P-selectin binding to immobilized sulfatides). The text has this:
P-selectin (GMP140, granule membrane protein-140, PADGEM, or CD62) is a calcium-dependent transmembrane protein found in alpha granules of endothelial cells and platelets. It is an inducible selectin produced on activated endothelium and platelets which recognize alpha(2-3)sialylated and alpha(1-3)fucosylated lactosaminoglycans which include the sequence, Lewis x (Zhou et al., J. Cell. Biol., (1991) 115 (2): 557-564) and sulfatides (3-sulfated galactosyl ceramides, Aruffo, et al., Cell (1991) 67: 35-44). P-selectin may be responsible for the initial adhesion events between endothelium and neutrophils as evidenced by leukocyte rolling induced by P-selectin in flow cells (Lawrence, M., and T. Springer, Cell (1991) 65: 859-873).
Based on the availability of soluble forms of P-selectin prepared as described by Aruffo, A., et al., Cell, 67, 35-44 (1991), a binding ELISA based assay modified from Foxall, et al., J., Cell Biol., 117, 895-902 (1992) was developed to measure inhibitors of P-selectin binding to immobilized sulfatides. Such inhibitors were tested in the assay described below.
0.1 ml of sulfatide (SIGMA) at 1 μg/ml in MeOH was added to 48 wells of a 96-well ELISA plate (ProBind, Falcon) and allowed to dry overnight at room temperature. Another set of 48 wells were incubated with the solvent (methanol, Fisher Scientific). The next day the antigen/solvent coated plates were blocked for 1.5 hours at room temperature with 5% BSA (ICN) in buffer containing 20 mM Hepes, 1 mM CaCl2 and 0.15M NaCl, pH 8.0. Wild type P-selectin was first mixed with HRP-conjugated goat anti-human IgG (1:5000 dilution, Fisher Scientific), and incubated for 30 minutes at 37° C. in buffer containing 20 mM Hepes, 0.15M NaCl, 1% BSA and 1 mM CaCl2, pH 8.0 prior to addition to the BSA blocked plates. Following the 30 minute preincubation, the fusion protein-HRP conjugate immunocomplexes were incubated on the blocked antigen coated plates for 45 minutes at 37° C. in the presence or absence of the test compounds and then washed to remove any unbound proteins. Bound complexes were detected by addition of substrate buffer (95 mM NaOAc.3H2 O, 5 mM citric acid monohydrate, 1.4 mM urea/H2 O2) containing 3, 3', 5, 5' Tetramethylbenzidine (SIGMA). Reactions were stopped by the addition of 3N sulfuric acid and the absorbance read on an ELISA reader at dual wavelengths 450 and 630 nm. The efficacy of these compounds was compared to that of sulfatide (positive control) or to MeOH (negative control). The data is obtained as percent inhibition of specific binding [formula] and a plot of dose vs. percent inhibition of Rg binding is generated in which IC50 (μM) is calculated and reported as cell free data in Table 1.

pIC50: −log10 of the molar value. Where only a bound is given, the exact number is not on record here.

Take `CCCCCCCCCCCCC/C=C/[C@@H](OC(=O)c1ccccc1)[C@H](CO[C@H]1O[C@H](COCC(=O)O)[C@H](OCC(=O)O)[C@H](OC(=O)c2ccccc2)[C@H]1OC(=O)c1ccccc1)NC(=O)CCCCCCCCCCCCCCC` [Example 2, (2S,3R,4E)-3-Benzoyloxy-2-hexadecanoylamino-1-[2,3-di-O-benzoyl-4,6-di-O-carboxymethyl-α-D-galactopyranosyloxy]-4-octadecene]: in assay [1], the “RPA VP % Inhib. (vascular permeability)” value is on record as more than 73% and the “RPA MPO % Inhib. (myeloperoxidase, neutrophil accumulation)” value is recorded as more than 99%. Also, the pIC50 with P-selectin is 6.04.

Take `CCCCCC/C=C/[C@@H](OC(=O)c1ccccc1)[C@H](CO[C@H]1O[C@H](COCC(=O)O)[C@H](OCC(=O)O)[C@H](OC(=O)c2ccccc2)[C@H]1OC(=O)c1ccccc1)NC(=O)CCCCCCCCC(=O)OC` [Example 8, (2S,3R,4E)-3-Benzoyloxy-2-(9-methoxycarbonyl-nonanoylamino)-1-(2,3-di-O-benzoyl-4,6-di-O-carboxymethyl-α-D-galactopyranosyloxy)-4-undecene]: in assay [1], the “RPA VP % Inhib. (vascular permeability)” value was 9% and the “RPA MPO % Inhib. (myeloperoxidase, neutrophil accumulation)” value came out at 22%. Besides, the pIC50 in the assay on P-selectin was less than 4.30.

As to `CCCCCCCCCCCCC/C=C/[C@@H](OC(=O)c1ccccc1)[C@H](CO[C@H]1O[C@H](COCC(=O)O)[C@H](OCC(=O)O)[C@H](O)[C@H]1OC(=O)c1ccccc1)NC(=O)CCCCCCCCCCCCCCC` [Example 14, (2S,3R,4E)-3-Benzoyloxy-2-hexadecanoylamino-1-[2-O-benzoyl-4,6-di-O-carboxymethyl-α-D-galactopyranosyloxy]-4-octadecene], in assay [1], the “RPA VP % Inhib. (vascular permeability)” value turned out to be 32% and the “RPA MPO % Inhib. (myeloperoxidase, neutrophil accumulation)” value is on record as 13%. The molecule further gave a pIC50 in the assay with P-selectin of 6.15.

Regarding `CCCCCCCCCCCCC/C=C/[C@@H](OC(=O)c1ccccc1)[C@H](CO[C@@H]1O[C@H](COCC(=O)O)[C@H](OCC(=O)O)[C@H](OC(=O)c2ccccc2)[C@H]1OC(=O)c1ccccc1)NC(=O)CCCCCCCCCCCCCCC` [Example 16, (2S,3R,4E)-2-Hexadecanoylamino-3-benzoyloxy-1-(4,6-di-O-carboxymethyl-2,3-di-O-benzoyl-β-D-galactopyranoside)-4-octadecene], in assay [1], the “RPA VP % Inhib. (vascular permeability)” value was “NS” and the “RPA MPO % Inhib. (myeloperoxidase, neutrophil accumulation)” value is “NS”. The molecule also had a negative-log IC50 (pIC50) in the assay with P-selectin of 5.46.

On to `CCCCCCCCCCCCC/C=C/[C@@H](OC(=O)c1ccccc1)[C@H](CO[C@@H]1O[C@H](COCC(=O)O)[C@H](OCC(=O)O)[C@H](OC(=O)c2ccccc2)[C@H]1O)NC(=O)CCCCCCCCCCCCCCC` [Example 18, (2S,3R,4E)-3-Benzoyloxy-2-hexadecanoylamino-1-[3-O-benzoyl-4,6-di-O-carboxymethyl-β-D-galactopyranosyloxy]-4-octadecene], for which, in assay [1], the “RPA VP % Inhib. (vascular permeability)” value is listed as 73.6% and the “RPA MPO % Inhib. (myeloperoxidase, neutrophil accumulation)” value is given as 98%. Further, the negative logarithm of the IC50 (pIC50) with P-selectin was more than 7.52.
